Legend:
[1] = target: T1, Estrogen receptor beta (Homo sapiens, UniProt Q92731)
[2] = target: T2, Estrogen receptor (Homo sapiens, UniProt P03372)
T2 sequence (P03372 whole entry): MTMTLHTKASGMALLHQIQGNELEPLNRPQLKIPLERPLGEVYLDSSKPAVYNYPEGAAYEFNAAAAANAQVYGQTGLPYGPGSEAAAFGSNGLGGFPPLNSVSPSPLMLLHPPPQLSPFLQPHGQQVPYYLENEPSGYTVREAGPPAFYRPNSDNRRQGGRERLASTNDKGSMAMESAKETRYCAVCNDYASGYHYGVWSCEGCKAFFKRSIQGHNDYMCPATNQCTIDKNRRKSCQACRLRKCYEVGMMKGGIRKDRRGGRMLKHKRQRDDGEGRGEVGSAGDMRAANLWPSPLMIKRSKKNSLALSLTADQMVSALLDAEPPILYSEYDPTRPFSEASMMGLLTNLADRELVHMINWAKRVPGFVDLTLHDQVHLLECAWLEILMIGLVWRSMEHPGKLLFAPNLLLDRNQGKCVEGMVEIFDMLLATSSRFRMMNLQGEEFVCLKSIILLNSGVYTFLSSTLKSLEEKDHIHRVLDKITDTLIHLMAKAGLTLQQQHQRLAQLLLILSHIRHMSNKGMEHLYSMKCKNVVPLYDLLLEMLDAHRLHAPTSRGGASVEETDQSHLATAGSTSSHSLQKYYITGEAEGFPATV

[3] = target: T2, Estrogen receptor; remark: listed apart in the source
Description: Transcriptional activation of estrogen receptor alpha in U2OS cell using estrogen-regulated luciferase reporter gene plasmid upon incubation for 20-30 mins at RT

[4] = target: T1, Estrogen receptor beta; remark: listed apart in the source
Description: Transcriptional activation of estrogen receptor beta in U2OS cell using estrogen-regulated luciferase reporter gene plasmid upon incubation for 20-30 mins at RT

T1 sequence (Q92731 whole entry): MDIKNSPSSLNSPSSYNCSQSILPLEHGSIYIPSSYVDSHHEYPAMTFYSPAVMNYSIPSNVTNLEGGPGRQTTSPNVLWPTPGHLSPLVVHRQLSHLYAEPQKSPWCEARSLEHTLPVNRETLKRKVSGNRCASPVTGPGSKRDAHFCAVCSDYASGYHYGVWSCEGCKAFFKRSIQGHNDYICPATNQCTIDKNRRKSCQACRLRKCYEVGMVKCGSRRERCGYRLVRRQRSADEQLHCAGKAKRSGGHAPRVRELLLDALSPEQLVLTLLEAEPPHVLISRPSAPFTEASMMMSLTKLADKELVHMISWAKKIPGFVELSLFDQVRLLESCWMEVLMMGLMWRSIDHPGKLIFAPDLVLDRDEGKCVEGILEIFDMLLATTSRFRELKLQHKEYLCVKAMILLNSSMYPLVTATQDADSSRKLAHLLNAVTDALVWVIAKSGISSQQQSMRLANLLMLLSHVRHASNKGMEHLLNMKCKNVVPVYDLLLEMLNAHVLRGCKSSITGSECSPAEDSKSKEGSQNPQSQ

| SMILES | Ki [1] [nM] | Ki [2] [nM] | EC50 [3] [nM] | EC50 [4] [nM] |
| --- | --- | --- | --- | --- |
| Oc1ccc(C2=C(c3ccc(C(F)(F)F)cc3)c3ccc(O)cc3C2)cc1 | 0.91 | 2.1 | 15 |  |
| CCC1=C(c2ccc(O)cc2)C(C(=O)Nc2ccc(O)cc2)c2cc(O)ccc21 (stereo not drawn) |  |  | 427 |  |
| NC(=O)c1ccc(C2=C(c3ccc(O)cc3)Cc3cc(O)ccc32)cc1 | 0.46 | 4.2 |  |  |
| Oc1ccc(C2=C(Cc3ccccc3)c3ccc(O)cc3C2)cc1 |  |  | 14 | 37 |
| CCC1=C(c2ccc(O)cc2)C(CC)c2cc(O)ccc21 (stereo not drawn) |  |  | 0.059 | 0.3 |
| Oc1ccc(C2=C(c3ccc(Cl)cc3)c3ccc(O)cc3C2)cc1 | 0.49 | 24 | 17 |  |
| CC(=O)c1ccc(C2=C(c3ccc(O)cc3)Cc3cc(O)ccc32)cc1 | 3.8 | 7.3 |  |  |
| CCC1=C(c2ccc(O)cc2)C(C(=O)O)c2cc(O)ccc21 (stereo not drawn) |  |  | 158 | 52 |
| CCC1=C(c2ccc(O)cc2)C(C(=O)Nc2ccc(OCCN(C)C)cc2)c2cc(O)ccc21 (stereo not drawn) |  |  | 152 | 512 |
| Oc1ccc(C2=C(c3ccc(CBr)cc3)c3ccc(O)cc3C2)cc1 | 15 | 59 | 109 |  |
| Oc1ccc(C2=C(c3ccc(OCCN4CCCCC4)cc3)c3ccc(O)cc3C2)cc1 | 0.19 | 1.7 |  |  |
| Oc1ccc(C2=C(c3ccccc3)c3ccc(O)cc3C2)cc1 |  |  | 4.3 | 54 |

Further lines, results first:

| Ki [1] [nM] | Ki [2] [nM] | EC50 [3] [nM] | EC50 [4] [nM] | SMILES |
| --- | --- | --- | --- | --- |
| 1.3 |  | 17 |  | Cc1ccc(C2=C(c3ccc(O)cc3)Cc3cc(O)ccc32)cc1 |
| 1.3 | 8.5 | 7 |  | Oc1ccc(C2=C(c3ccc(O)cc3)c3ccc(O)cc3C2)cc1 |
| 2.8 |  | 3.9 | 10 | Oc1ccc(C2=C(c3ccc(F)cc3)c3ccc(O)cc3C2)cc1 |
| 421 |  |  |  | O=C(O)c1ccc(C2=C(c3ccc(O)cc3)Cc3cc(O)ccc32)cc1 |
| 2.2 | 0.67 | 6.7 |  | Nc1ccc(C2=C(c3ccc(O)cc3)Cc3cc(O)ccc32)cc1 |
| 147 | 184 | 100 |  | CCC1=C(c2ccc(O)cc2)C(C(=O)Nc2ccc(OCCN3CCCCC3)cc2)c2cc(O)ccc21 (stereo not drawn) |
|  |  | 0.31 | 0.3 | CCC1=C(c2ccc(O)cc2)Cc2cc(O)ccc21 |

Reference: ChEMBL document CHEMBL1141087, “Differential response of estrogen receptor subtypes to 1,3-diarylindene and 2,3-diarylindene ligands” (J Med Chem, 2005)
